Measurements: patent publication US20080269170A1, “Novel 2,4-Dianilinopyrimidine Derivatives, the Preparation Thereof, Their Use as Medicaments, Pharmaceutical Compositions and, in Particular, as IKK Inhibitors” (sanofi-aventis, priority 2005, published 2008)
Structures can show the parent of a compound that is named as a salt.

Compound	melting point
CN1C2CCC1CC(N(C)S(=O)(=O)c1ccc(Nc3nccc(Nc4ccc(F)cc4)n3)cc1)C2 (stereo not shown)	184.5 °C
CCOP(=O)(CCN1CCC(NS(=O)(=O)c2ccc(Nc3nccc(Nc4ccc(F)c(F)c4)n3)cc2)CC1)OCC	133 °C
CCOP(=O)(CN1CCC(NS(=O)(=O)c2ccc(Nc3nccc(Nc4ccc(F)c(F)c4)n3)cc2)CC1)OCC	137.8 °C
CCOP(=O)(CCN1CCC(N(C)S(=O)(=O)c2ccc(Nc3nccc(Nc4ccc(F)c(F)c4)n3)cc2)CC1)OCC	93 to 96 °C
CCOP(=O)(CCN1CCC(N(CCN)S(=O)(=O)c2ccc(Nc3nccc(Nc4ccc(F)c(F)c4)n3)cc2)CC1)OCC	88 to 90 °C
CCOP(=O)(CCN1CCC(N(CCCN)S(=O)(=O)c2ccc(Nc3nccc(Nc4ccc(F)c(F)c4)n3)cc2)CC1)OCC	94 to 96 °C
CCOP(=O)(CCN1CCC(N(C)S(=O)(=O)c2ccc(Nc3nccc(Nc4ccc(F)cc4)n3)cc2)CC1)OCC	95 to 100 °C
CCOP(=O)(CCN1CCC(N(CCN)S(=O)(=O)c2ccc(Nc3nccc(Nc4ccc(F)cc4)n3)cc2)CC1)OCC	90 °C
CCOP(=O)(CCCN1CCC(NS(=O)(=O)c2ccc(Nc3nccc(Nc4ccc(F)cc4)n3)cc2)CC1)OCC	110 °C
CCOP(=O)(CCN1CCC(N(CCCN)S(=O)(=O)c2ccc(Nc3nccc(Nc4ccc(F)cc4)n3)cc2)CC1)OCC	125 to 130 °C
CCOP(=O)(CCN1CCC(N(CCN2CCCC2)S(=O)(=O)c2ccc(Nc3nccc(Nc4ccc(F)cc4)n3)cc2)CC1)OCC	85 °C
CC(C)(O)CNCCN(C1CCN(Cc2ccccc2)CC1)S(=O)(=O)c1ccc(Nc2nccc(Nc3ccc(F)cc3)n2)cc1 (as salt: hydrochloride)	200 °C
CN(C1CCNCC1)S(=O)(=O)c1ccc(Nc2nccc(Nc3ccc(F)c(F)c3)n2)cc1 (as salt: hydrochloride)	275 °C
Cc1cc(Nc2ccnc(Nc3ccc(S(=O)(=O)N(C)C4CCNCC4)cc3)n2)ccc1F (as salt: hydrochloride)	215 to 220 °C
CN1CCC(N(CCN)S(=O)(=O)c2ccc(Nc3nccc(Nc4ccc(F)cc4)n3)cc2)CC1 (as salt: hydrochloride)	225 °C
CN(C)CCN(C1CCNCC1)S(=O)(=O)c1ccc(Nc2nccc(Nc3ccc(F)cc3)n2)cc1 (as salt: hydrochloride)	220 °C
O=S(=O)(c1ccc(Nc2nccc(Nc3ccc(F)cc3)n2)cc1)N(CCN1CCCC1)C1CCNCC1 (as salt: hydrochloride)	200 °C
CCOP(=O)(CCN1CCC(N(CC2CCCN2)S(=O)(=O)c2ccc(Nc3nccc(Nc4ccc(F)cc4)n3)cc2)CC1)OCC (stereo not shown) (as salt: hydrochloride)	185 °C
NCCN(C1CCN(Cc2ccccc2)CC1)S(=O)(=O)c1ccc(Nc2nccc(Nc3ccc(F)cc3)n2)cc1 (as salt: hydrochloride)	230 to 232 °C
NCCN(C1CNC1)S(=O)(=O)c1ccc(Nc2nccc(Nc3ccc(F)cc3)n2)cc1 (as salt: hydrochloride)	> 220 °C
CCNCCN(C1CCNCC1)S(=O)(=O)c1ccc(Nc2nccc(Nc3ccc(F)cc3)n2)cc1 (as salt: hydrochloride)	250 °C
NCCN(C1CCOCC1)S(=O)(=O)c1ccc(Nc2nccc(Nc3ccc(F)cc3)n2)cc1 (as salt: hydrochloride)	200 °C

Compound	melting point
Cc1cc(Nc2ccnc(Nc3ccc(S(=O)(=O)N(CCN)C4CNC4)cc3)n2)ccc1F (as salt: hydrochloride)	205 °C
Cc1cc(Nc2ccnc(Nc3ccc(S(=O)(=O)N(CCN)C4CCN(CC(F)(F)F)CC4)cc3)n2)ccc1F (as salt: hydrochloride)	225 °C
CN(C1CCNCC1)S(=O)(=O)c1ccc(Nc2nccc(Nc3ccc(F)cc3)n2)cc1 (as salt: hydrochloride) [Example 8, 4-[4-(4-Fluorophenylamino)pyrimidin-2-ylamino]-N-methyl-N-piperidin-4-yl-benzenesulfonamide]	205 to 210 °C
NCCN(C1CCNCC1)S(=O)(=O)c1ccc(Nc2nccc(Nc3ccc(F)cc3)n2)cc1 (as salt: hydrochloride) [Example 44, N-(2-Aminoethyl)-4-[4-(4-fluorophenyl-amino)pyrimidin-2-ylamino]-N-piperidin-4-ylbenzene-sulfonamide hydrochloride]	270 °C
CNCCN(C1CCN(C)CC1)S(=O)(=O)c1ccc(Nc2nccc(Nc3ccc(F)cc3)n2)cc1 (as salt: hydrochloride) [Example 46, 4-[4-(4-Fluorophenylamino)pyrimidin-2-yl-amino]-N-(2-methylaminoethyl)-N-(1-methylpiperidin-4-yl)benzenesulfonamide hydrochloride]	220 °C
NCCCN(C1CCNCC1)S(=O)(=O)c1ccc(Nc2nccc(Nc3ccc(F)cc3)n2)cc1 (as salt: hydrochloride) [Example 92, N-(3-Aminopropyl)-4-({4-[(4-fluorophenyl)-amino]pyrimidin-2-yl}amino)-N-piperidin-4-ylbenzene-sulfonamide hydrochloride]	245 to 247 °C
Cc1cc(Nc2ccnc(Nc3ccc(S(=O)(=O)N(CCN)C4CCN(C)CC4)cc3)n2)ccc1F (as salt: hydrochloride) [Example 95, N-(2-Aminoethyl)-4-({4-[(4-fluoro-3-methyl-phenyl)amino]pyrimidin-2-yl}amino)-N-(1-methylpiperidin-4-yl)benzenesulfonamide hydrochloride]	220 °C
O=S(=O)(c1ccc(Nc2nccc(Nc3ccc(F)cc3)n2)cc1)N(CCN1CCCC1)C1CNC1 (as salt: hydrochloride) [Example 96, N-Azetidin-3-yl-4-({4-[(4-fluorophenyl)-amino]pyrimidin-2-yl}amino)-N-(2-pyrrolidin-1-ylethyl)-benzenesulfonamide hydrochloride]	215 °C
Cc1cc(Nc2ccnc(Nc3ccc(S(=O)(=O)N(CCN4CCCC4)C4CNC4)cc3)n2)ccc1F (as salt: hydrochloride) [Example 97, N-Azetidin-3-yl-4-({4-[(4-fluoro-3-methyl-phenyl)amino]pyrimidin-2-yl}amino)-N-(2-pyrrolidin-1-ylethyl)benzenesulfonamide hydrochloride]	231 to 235 °C
NCCN(C1CCN(CC(F)(F)F)CC1)S(=O)(=O)c1ccc(Nc2nccc(Nc3ccc(F)cc3)n2)cc1 (as salt: hydrochloride) [Example 100, N-(2-Aminoethyl)-4-({4-[(4-fluorophenyl)-amino]pyrimidin-2-yl}amino)-N-[1-(2,2,2-trifluoro-ethyl)piperidin-4-yl]benzenesulfonamide hydrochloride]	240 to 245 °C
CN1CCC(N(C[C@@H]2CCCN2)S(=O)(=O)c2ccc(Nc3nccc(Nc4ccc(F)cc4)n3)cc2)CC1 (as salt: hydrochloride) [Example 123, 4-({4-[(4-Fluorophenyl)amino]pyrimidin-2-yl}amino)-N-(1-methylpiperidin-4-yl)-N-[(2S)-pyrrolidin-2-ylmethyl]benzenesulfonamide]	200 °C
CN1CCC(N(C[C@H]2CCCN2)S(=O)(=O)c2ccc(Nc3nccc(Nc4ccc(F)cc4)n3)cc2)CC1 (as salt: hydrochloride) [Example 124, 4-({4-[(4-Fluorophenyl)amino]pyrimidin-2-yl}amino)-N-(1-methylpiperidin-4-yl)-N-[(2R)-pyrrolidin-2-ylmethyl]benzenesulfonamide]	200 °C
CN1CCC(N(CC2CCCO2)S(=O)(=O)c2ccc(Nc3nccc(Nc4ccc(F)cc4)n3)cc2)CC1 (racemic) [Example 154]	189 °C
CN1CCC(N(C)S(=O)(=O)c2ccc(Nc3nccc(Nc4ccc(F)cc4)n3)cc2)CC1 [Example 1, 4-[4-(4-Fluorophenylamino)pyrimidin-2-ylamino]-N-methyl-N-(1-methylpiperidin-4-yl)benzenesulfonamide]	205 to 210 °C
O=C(CNS(=O)(=O)c1ccc(Nc2nccc(Nc3ccc(F)cc3)n2)cc1)NC1CCOCC1 [Example 2, 2-{4-[4-(4-Fluorophenylamino)pyrimidin-2-ylamino]benzenesulfonylamino}-N-(tetrahydropyran-4-yl)-acetamide]	253 to 254 °C
CN(C1CCN(Cc2ccccc2)CC1)S(=O)(=O)c1ccc(Nc2nccc(Nc3ccc(F)cc3)n2)cc1 [Example 3, N-(1-Benzylpiperidin-4-yl)-4-[4-(4-fluoro-phenylamino)pyrimidin-2-ylamino]-N-methylbenzene-sulfonamide]	186 to 190 °C
CN1CCC(N(C)S(=O)(=O)c2ccc(Nc3nccc(Nc4ccc(F)cc4)n3)cc2)C1 (stereo not shown) [Example 5, 4-[4-(4-Fluorophenylamino)pyrimidin-2-yl-amino]-N-methyl-N-(1-methylpyrrolidin-3-yl)benzene-sulfonamide]	177 to 181 °C
CN(C1CCS(=O)(=O)C1)S(=O)(=O)c1ccc(Nc2nccc(Nc3ccc(F)cc3)n2)cc1 (stereo not shown) [Example 6, N-(1,1-Dioxotetrahydro-1λ^6-thiophen-3-yl)-4-[4-(4-fluorophenylamino)pyrimidin-2-ylamino]-N-methyl-benzenesulfonamide]	236 to 240 °C
CN(C1CCN(Cc2ccccn2)CC1)S(=O)(=O)c1ccc(Nc2nccc(Nc3ccc(F)cc3)n2)cc1 [Example 9, 4-[4-(4-Fluorophenylamino)pyrimidin-2-ylamino]-N-methyl-N-(1-pyridin-2-ylmethylpiperidin-4-yl)benzenesulfonamide]	202 to 204 °C
CCN1CCC(N(C)S(=O)(=O)c2ccc(Nc3nccc(Nc4ccc(F)cc4)n3)cc2)CC1 [Example 10, N-(1-Ethylpiperidin-4-yl)-4-[4-(4-fluoro-phenylamino)pyrimidin-2-ylamino]-N-methylbenzene-sulfonamide]	162 to 163 °C
CN1CCC(N(C)S(=O)(=O)c2ccc(Nc3nccc(Nc4ccc(F)c(F)c4)n3)cc2)CC1 [Example 11, 4-[4-(3,4-Difluorophenylamino)pyrimidin-2-ylamino]-N-methyl-N-(1-methylpiperidin-4-yl)benzene-sulfonamide]	181 to 183 °C
